Laboratory results taken from ChEMBL document CHEMBL3352536, “Antiparasitic compounds may potentially treat malaria and other parasitic diseases” (ACS Med Chem Lett, 2014).

Tests used:
Plasmodium falciparum = test: Antiplasmodial activity against Plasmodium falciparum infected in human blood cells assessed as inhibition of proliferation; assay type: functional, organism-based
Plasmodium yoelii = test: Antiplasmodial activity against Plasmodium yoelii infected in liver cells assessed as inhibition of proliferation; assay type: functional, organism-based

## CN(C(=O)c1cn2c(-c3ccc(C(N)=O)cc3)cnc2cn1)c1ccc(F)cc1
Plasmodium falciparum
  EC50: 74 nM
Plasmodium yoelii
  EC50: 56 nM

## CN(Cc1cn2c(-c3ccc(C(N)=O)cc3)cnc2cn1)c1ccc(F)cc1
Plasmodium falciparum
  EC50: 30 nM
Plasmodium yoelii
  EC50: 7 nM

## CN(Cc1cn2c(-c3ccc(C(N)=O)cc3)cnc2cn1)c1ccc(Cl)cc1
Plasmodium falciparum
  EC50: 9 nM
Plasmodium yoelii
  EC50: 11 nM

## Cc1ccc(N(C)C(=O)c2cn3c(-c4ccc(C(F)(F)F)cc4)cnc3cn2)nc1
Plasmodium falciparum
  EC50: 199 nM
Plasmodium yoelii
  EC50: 1110 nM
